Reference: ChEMBL document CHEMBL4706519, “Evaluation of N-phenyl-2-aminothiazoles for treatment of multi-drug resistant and intracellular Staphylococcus aureus infections” (Eur J Med Chem, 2020)
In brackets after ≈: the same amount, converted by molar mass.

Key:
Format in all cases: functional
Conditions in all cases: time 18-20 hrs
Staphylococcus aureus = experiment: Antibacterial activity against methicillin-resistant Staphylococcus aureus USA300 NRS384 assessed as inhibition of bacterial growth measured after 18 to 20 hrs by broth microdilution method
Escherichia coli [1] = experiment: Antibacterial activity against Escherichia coli JW55031 harboring toIC efflux mutant assessed as inhibition of bacterial growth measured after 18 to 20 hrs by broth microdilution method
Escherichia coli [2] = experiment: Antibacterial activity against wild type Escherichia coli BW25113 assessed as inhibition of bacterial growth measured after 18 to 20 hrs by broth microdilution method

Structure (SMILES)	MIC (Staphylococcus aureus) [µg/mL]	MIC (Escherichia coli [1]) [µg/mL]	MIC (Escherichia coli [2]) [µg/mL]
CC(=O)c1ccc(Nc2nc(-c3ccc(C)cc3)cs2)cc1	> 64	64 (≈ 208 µM)	> 64
CN[C@@H]1[C@@H](O)[C@@H](O[C@@H]2[C@@H](O)[C@H](O[C@H]3O[C@H]([C@@H](C)N)CC[C@H]3N)[C@@H](N)C[C@H]2N)OC[C@]1(C)O [GENTAMICIN C2]	–	0.25 (≈ 0.539 µM)	0.25 (≈ 0.539 µM)
C/C(=N\NC(N)=O)c1ccc(Nc2nc(-c3ccc(Cl)cc3)cs2)cc1	> 64	> 64	> 64
CC(=O)c1ccc(Nc2nc(-c3ccc(Br)cc3)cs2)cc1	> 64	> 64	> 64
CC(=O)c1ccc(Nc2nc(-c3ccccc3)cs2)cc1	> 64	> 64	> 64
C/C(=N\NC(N)=O)c1ccc(Nc2nc(-c3ccc(Br)cc3)cs2)cc1	> 64	> 64	> 64
COc1ccc(-c2csc(Nc3ccc(/C(C)=N/NC(N)=S)cc3)n2)cc1	> 64	> 64	> 64
C/C(=N\NC(=N)N)c1ccc(Nc2nc(-c3ccc(Br)cc3)cs2)cc1	16 (≈ 37.3 µM)	2 (≈ 4.66 µM)	4 (≈ 9.32 µM)
C/C(=N\NC(N)=O)c1ccc(Nc2nc(-c3ccccc3)cs2)cc1	> 64	> 64	> 64
C/C(=N\NC(N)=S)c1ccc(Nc2nc(-c3ccccc3)cs2)cc1	> 64	> 64	> 64
CC(=O)c1ccc(Nc2nc(-c3ccc(Cl)cc3)cs2)cc1	> 64	> 64	> 64
C/C(=N\NC(N)=O)c1ccc(Nc2nc(-c3ccc(C)cc3)cs2)cc1	32 (≈ 87.6 µM)	32 (≈ 87.6 µM)	> 64
C/C(=N\NC(N)=S)c1ccc(Nc2nc(-c3ccc(Cl)cc3)cs2)cc1	32 (≈ 79.6 µM)	64 (≈ 159 µM)	> 64
COc1ccc(-c2csc(Nc3ccc(/C(C)=N/NC(=N)N)cc3)n2)cc1	32 (≈ 84.1 µM)	2 (≈ 5.26 µM)	4 (≈ 10.5 µM)
C/C(=N\NC(N)=S)c1ccc(Nc2nc(-c3ccc(C)cc3)cs2)cc1	> 64	> 64	> 64
COc1ccc(-c2csc(Nc3ccc(C(C)=O)cc3)n2)cc1	> 64	> 64	> 64
C/C(=N\NC(N)=S)c1ccc(Nc2nc(-c3ccc(Br)cc3)cs2)cc1	> 64	> 64	> 64
COc1ccc(-c2csc(Nc3ccc(/C(C)=N/NC(N)=O)cc3)n2)cc1	> 64	> 64	> 64
